Source: patent US20070276103A1, “Fluorinated Surfactants” (3M Innovative Properties Company, priority 2006, published 2007)
Where two headings read alike, the source gives them in different places.

Experiments:
[1] = Determination of bio-accumulation: urinary clearance pharmacokinetic study in rats; conditions: male Sprague Dawley rats, 73 micro Moles per kg, oral gavage; for Compound-related Effects: clinical signs of toxicity and gross necropsy at 96 hours post-dose; for % Recovery (96 h): recovery of compound in urine 96 h post-dose; for T ½: renal (urinary) elimination half-life, parent compound in urine by fluorine NMR, exponential least squares curve fitting
Procedure: (§1) The perfluorinated and partially fluorinated carboxylates were evaluated for urinary clearance using a pharmacokinetic study in rats. The goal was to measure the total amount of parent compound eliminated via urinary output and estimate the rate of elimination.
(§2) The study utilized male Sprague Dawley rats, 6 to 8 weeks of age, and approximately 200 to 250 g body weight at study onset. The test compounds of Table 2 were administered at a dose of 73 micro Moles per kg body weight in rats (N=3 animals per tested compound). All test compounds were prepared in sterile deionized water and given to rats via oral gavage. After test compound administration, the rats were housed individually in metabolism cages for urine collection: 0 to 6 hours, 6 to 24 hours, 24 to 48 hours and 72 to 96 hours. Animals were observed throughout the study for clinical signs of toxicity. Gross necropsy was performed at the termination of each study (96 hours post-dose) with sera and liver samples being retained from each animal.
(§3) The concentration of the parent compound or metabolites thereof were quantitatively measured via fluorine NMR on each urine sample for each animal at each time point based on internally added standards.
(§4) In Table 2, T1/2 is the time required for the amount of a particular substance in a biological system to be reduced to one half of its value by biological processes when the rate of removal is approximately exponential. In these examples the value of T1/2 is calculated by exponential least squares curve fitting (y=AeBX and T1/2=0.693/B) where y represents the concentration of analyte in urine and x represents time in hours.

[2] = rat, in vivo, po
Procedure: as §1, §2, §3, §4

| SMILES | Compound-related Effects [1] | % Recovery (96 h) [1] [%] | T ½ [1] [days] | Compound-related Effects [2] |
| --- | --- | --- | --- | --- |
| N.O=C(O)C(F)(F)C(F)(F)OC(F)(F)C(F)(F)C(F)(F)C(F)(F)F [Example 1, C4F9—O—CF2—CF2—COONH4] | Hepatomegaly | 42 | 1.29 | – |
| N.O=C(O)C(F)(F)C(F)(F)C(F)(F)C(F)(F)C(F)(F)OC(F)C(F)(F)F (centres unmarked) [Example 3, CF3—CFH—O—(CF2)5—COONH4] | – | – | – | Hepatomegaly |
| N.O=C(O)C(F)(F)C(F)(F)C(F)(F)C(F)(F)C(F)(F)C(F)(F)C(F)(F)F [Example C1, CF3(CF2)6COONH4] | Hepatomegaly | 6 | ~22.9 | – |
| N.O=C(O)C(F)(F)OC(F)(F)C(F)(OC(F)(F)C(F)(F)C(F)(F)F)C(F)(F)F (centres unmarked) [Example C2, CF3CF2CF2OCF(CF3)CF2OCF2COONH4] | – | – | – | Hepatomegaly |
